{"source": "patent US11261152B2", "about": "“Inhibitors of the N-terminal domain of the androgen receptor” (The Regents of the University of California, priority 2017, dated 2022)", "key": {"CREB TAD": {"tested_on": "CREB TAD", "assay": "CREB-TAD fused to GAL4 DNA-binding domain reporter assay", "assay_type": "cell-based", "details": "Table 3 grade HIGH/MED/LOW, grades not defined", "from_the_text": "The inhibitory activity of JN018 was further evaluated in experiments in which the AR transactivation domain (TAD) or the c-Jun or CREB TAD was fused to the heterologous GAL4 DNA-binding domain and thereby drive reporter gene expression governed by the GAL4 response element (FIG. 1)."}, "[1]": {"target": "T1, full length AR and AR splice variants (AR-V7, AR Δ567) (Homo sapiens, UniProt P10275)", "T1 construct": "endogenous in cells; host or cells: LNCaP-AR (engineered to overexpress full length AR), 22Rv1 (endogenous full length AR and AR-V7), PC3 stably expressing AR Δ567", "T1 sequence (P10275 1-920)": "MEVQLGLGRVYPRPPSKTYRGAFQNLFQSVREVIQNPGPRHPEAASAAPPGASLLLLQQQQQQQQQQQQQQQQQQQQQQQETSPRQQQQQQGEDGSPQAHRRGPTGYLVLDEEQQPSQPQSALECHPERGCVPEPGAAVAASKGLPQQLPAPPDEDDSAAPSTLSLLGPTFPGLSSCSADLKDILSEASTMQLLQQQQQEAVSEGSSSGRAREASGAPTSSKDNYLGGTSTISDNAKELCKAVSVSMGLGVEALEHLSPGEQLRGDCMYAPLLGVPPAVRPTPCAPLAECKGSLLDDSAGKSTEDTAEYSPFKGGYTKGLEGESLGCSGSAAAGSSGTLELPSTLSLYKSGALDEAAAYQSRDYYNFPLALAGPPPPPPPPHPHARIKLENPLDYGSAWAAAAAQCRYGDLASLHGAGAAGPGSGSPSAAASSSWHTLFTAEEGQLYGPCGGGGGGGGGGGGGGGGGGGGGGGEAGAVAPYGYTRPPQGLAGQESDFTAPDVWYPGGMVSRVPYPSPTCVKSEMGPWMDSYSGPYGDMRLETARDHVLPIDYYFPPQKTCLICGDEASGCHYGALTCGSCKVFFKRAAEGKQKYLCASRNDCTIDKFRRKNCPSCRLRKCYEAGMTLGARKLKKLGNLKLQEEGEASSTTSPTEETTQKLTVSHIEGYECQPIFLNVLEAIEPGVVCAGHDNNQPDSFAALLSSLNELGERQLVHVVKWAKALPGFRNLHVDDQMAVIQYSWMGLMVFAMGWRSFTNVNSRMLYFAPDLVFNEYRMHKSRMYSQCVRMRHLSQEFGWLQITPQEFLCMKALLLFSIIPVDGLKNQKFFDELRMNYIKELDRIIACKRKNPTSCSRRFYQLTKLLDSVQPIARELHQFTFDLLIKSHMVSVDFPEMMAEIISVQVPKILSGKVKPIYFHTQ", "T1 sequence (P10275 1-644 isoform P10275-3)": "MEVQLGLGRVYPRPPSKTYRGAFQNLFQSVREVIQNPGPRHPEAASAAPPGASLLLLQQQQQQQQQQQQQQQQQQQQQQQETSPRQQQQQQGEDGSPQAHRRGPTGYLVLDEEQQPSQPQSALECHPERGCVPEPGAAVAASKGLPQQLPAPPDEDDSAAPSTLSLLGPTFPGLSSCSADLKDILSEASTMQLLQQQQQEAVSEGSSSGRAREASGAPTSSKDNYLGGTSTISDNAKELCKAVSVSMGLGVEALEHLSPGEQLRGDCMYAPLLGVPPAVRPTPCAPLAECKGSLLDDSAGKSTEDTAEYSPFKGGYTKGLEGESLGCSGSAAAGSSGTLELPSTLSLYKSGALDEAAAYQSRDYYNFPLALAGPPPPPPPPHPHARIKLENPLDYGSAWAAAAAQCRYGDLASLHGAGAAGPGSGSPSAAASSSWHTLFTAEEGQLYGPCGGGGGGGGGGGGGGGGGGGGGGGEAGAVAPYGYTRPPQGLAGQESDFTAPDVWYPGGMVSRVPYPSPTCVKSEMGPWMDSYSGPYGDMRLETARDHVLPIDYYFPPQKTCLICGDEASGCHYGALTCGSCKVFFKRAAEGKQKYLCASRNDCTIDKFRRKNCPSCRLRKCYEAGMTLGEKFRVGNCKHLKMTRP", "T1 sequence (P10275 with tags, fused parts or gaps limits assumed)": "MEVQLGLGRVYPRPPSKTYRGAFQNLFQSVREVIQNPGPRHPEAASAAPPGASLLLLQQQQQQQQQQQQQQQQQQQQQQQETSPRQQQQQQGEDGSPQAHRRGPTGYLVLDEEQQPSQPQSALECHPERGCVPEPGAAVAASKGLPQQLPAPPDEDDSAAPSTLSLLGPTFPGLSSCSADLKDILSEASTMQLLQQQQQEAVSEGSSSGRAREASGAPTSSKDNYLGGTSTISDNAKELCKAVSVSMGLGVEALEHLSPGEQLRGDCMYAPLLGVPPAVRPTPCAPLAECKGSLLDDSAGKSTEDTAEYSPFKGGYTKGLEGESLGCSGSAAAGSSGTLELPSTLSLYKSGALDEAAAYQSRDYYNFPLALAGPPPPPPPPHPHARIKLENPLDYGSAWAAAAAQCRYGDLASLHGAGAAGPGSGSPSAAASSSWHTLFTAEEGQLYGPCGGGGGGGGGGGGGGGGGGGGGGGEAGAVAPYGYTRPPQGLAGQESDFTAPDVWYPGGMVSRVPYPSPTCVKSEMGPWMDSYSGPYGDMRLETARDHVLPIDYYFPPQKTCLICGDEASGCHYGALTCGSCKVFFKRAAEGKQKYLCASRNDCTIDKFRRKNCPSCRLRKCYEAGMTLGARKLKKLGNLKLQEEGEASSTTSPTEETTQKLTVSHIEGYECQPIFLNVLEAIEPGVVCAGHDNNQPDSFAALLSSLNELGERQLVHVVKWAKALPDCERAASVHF", "assay": "AR degradation, protein stability experiments with cycloheximide (Western blot)", "assay_type": "cell-based", "experimental": "A) LNCaP-AR cells were exposed to the indicated compounds or vehicle (DMSO) in the presence of cycloheximide for the indicated times. Western blots were performed for the indicated proteins. B) Same as A but in 22Rv1 cells."}, "[2]": {"tested_on": "LNCaP-AR castration resistant cell line", "assay": "LNCaP-AR castration resistant xenograft in castrated nude mice", "assay_type": "in vivo", "experimental": "FIG. 12A. In vivo effects of JN series compounds.\nFIG. 12B. In vivo effects of JN series compounds.\nSelected compounds were tested in a mouse xenograft model. In this model, the LNCaP-AR castration resistant cell line was grown subcutaneously in the flanks of castrated nude mice. When tumors reached 150-200 mm^3, mice were administered selected JN series compounds, vehicle or positive control by oral gavage once per day for five days per week (Mon-Fri). […]."}, "[3]": {"tested_on": "AR transcriptional activity (MMTV reporter)", "assay": "MMTV reporter assay", "assay_type": "cell-based"}, "[4]": {"tested_on": "CREB mediated reporter activity", "assay": "CRE / CREB mediated reporter assay", "assay_type": "cell-based"}, "[5]": {"details": "Table 3 grade HIGH/MED/LOW, grades not defined"}}, "note": "Where a name gives a salt, the structure may show the parent alone."}
{"smiles": "C=C(CN(C)Cc1ccccc1)C(=O)/C(=C/c1ccc(Cl)cc1)c1ccccc1", "note": "[JN018, (E)-4-((Benzyl(methyl)amino)methyl)-1-(4-chlorophenyl)-2-phenylpenta-1,4-dien-3-one hydrochloride]", "values": [{"measurement": "CREB-TAD", "setting": "CREB TAD", "result": "LOW"}, {"measurement": "IC50 for AR Degradation", "setting": "[1]", "result": "~2000", "unit": "nM"}, {"measurement": "degradation of AR splice variant AR Δ567", "setting": "[1]; stably introduced into PC3 cells", "result": "enhanced degradation"}, {"measurement": "tumor growth of LNCaP-AR model in castrated nude mice", "setting": "[2]; oral gavage once per day, five days per week (Mon-Fri), hydrochloride", "result": "inhibits growth"}, {"measurement": "signs of toxicity in mice", "setting": "[2]; xenograft study, oral gavage Mon-Fri", "result": "some mice exhibited signs of toxicity"}, {"measurement": "MMTV", "setting": "[3]; [5]", "result": "HIGH"}, {"measurement": "reporter activity driven by the MMTV promoter", "setting": "[3]; result in words", "result": "inhibits reporter activity"}, {"measurement": "CRE", "setting": "[4]; [5]", "result": "LOW"}, {"measurement": "CREB mediated reporter activity", "setting": "[4]; result in words", "result": "does not affect"}]}
